# Laboratory results as given in patent US6087358A (priority 1997, dated 2000).
# Where two headings read alike, the source gives them in different places.
# How the values were obtained:
# [1] = test system: Mycobacterium tuberculosis H37Rv (sensitive strain); assay: MIC as determined by the BACTEC method, sensitive strain; format: cell-based; conditions: M. tuberculosis H37Rv (sensitive strain), read-out: MIC, column B, 3(S) compounds
# [2] = test system: Clostridium difficile ATCC 17857; assay: In vitro inhibition of Clostridium difficile (Oxyrase broth microdilution MIC); format: cell-based; conditions: Clostridioides difficile, ATCC17857; Clostridium difficile ATCC 17857, Oxyrase broth; read-out: MIC, column D, 3(S) compounds
# [3] = test system: Mycobacterium bovis BCG (recombinant strain); assay: microbe, parasite or virus in culture; format: cell-based; conditions: Mycobacterium tuberculosis variant bovis BCG, BCG, 144 h; 6 days 37° C.; read-out: MIC, column A, 3(S) compounds
# [4] = test system: Mycobacterium bovis (rBCG); format: in vivo; conditions: 10 days
# Helicobacter pylori = assay: In vitro inhibition of Helicobacter pylori (broth microdilution MIC); conditions: Helicobacter pylori
# Helicobacter felis = assay: In vivo activity against Helicobacter felis in mice (urease test of stomach biopsy); design: species or system in female CD-1 mice; conditions: 50 mg/kg three times daily oral gavage, CM-2, four days; vehicle and untreated 100
# Experimental: Female CD-1 mice weighing 30 grams were infected by oral gavage with 10^8 -10^9 colony forming units of H. felis. This infection process was repeated two, and four days, thereafter. Colonization of the stomach was allowed to occur over a seven day period. Animals were segregated into groups of five, and were treated three times daily by oral gavage with 50 mg/kg of test drugs prepared in the CM-2 formulation vehicle (Example 52). Treatment continued for four days. One group of animals received an equal volume of formulation vehicle alone, to ensure that the vehicle had no effect on the Helicobacter infection. A separate untreated control group was also included.
# All animals were then sacrificed, the stomachs were removed, opened, and the contents washed out. A five millimeter diameter biopsy was removed, and transferred to a urease test solution containing a pH-sensitive dye, which was then incubated at 37° C. incubator for 24 hours. A blue or purple coloration in this test solution signifies a positive reaction, indicating the continued presence of viable Helicobacter bacteria; a negative result is indicated by a yellow coloration. Viable Helicobacter bacteria produce a urease enzyme which converts urea, of which there is an abundant supply in the stomach (from saliva and gastric juices), into bicarbonate and ammonia, which are strong bases. This mechanism is considered to provide conditions more amenable to the survival of Helicobacter in the otherwise acidic conditions prevalent in the stomach.
# [5] = test system: Mycobacterium tuberculosis; conditions: Ashtekar et al. 1993; cited from earlier work
Compound,MIC [1] [µg/mL],MIC [2] [µg/mL],MIC [3] [µg/mL],"Average RLUs, M. bovis (rBCG) in spleens [4]","MIC (Helicobacter pylori; 72 h, read-out: MIC against Helicobacter pylori, strain 17 (Table 5A)) [µg/mL]","MIC (Helicobacter pylori; 72 h, read-out: MIC against Helicobacter pylori, strain 19 (Table 5A)) [µg/mL]","MIC (Helicobacter pylori; 72 h, read-out: MIC against Helicobacter pylori, strain 20 (Table 5A)) [µg/mL]","MIC (Helicobacter pylori; 72 h, read-out: MIC against Helicobacter pylori, strain 40 (Table 5A)) [µg/mL]","MIC (Helicobacter pylori; 72 h, read-out: MIC against Helicobacter pylori, strain 43 (Table 5A)) [µg/mL]","MIC (Helicobacter pylori; 72 h, read-out: MIC against Helicobacter pylori, strain 76 (Table 5A)) [µg/mL]","MIC (Helicobacter pylori; ATCC43504, 72 h, read-out: MIC against Helicobacter pylori, strain ATCC 43504 (Table 5A)) [µg/mL]",% Survival (Helicobacter felis) [%],activity against Mycobacterium tuberculosis [5]
CC(C)(C)c1ccc(CO[C@@H]2COc3nc([N+](=O)[O-])cn3C2)cc1 [PA-653],0.03,3.12,0.06,"229,080 RLUs",–,–,–,–,–,–,–,–,–
O=[N+]([O-])c1cn2c(n1)OC[C@@H](OCc1ccc(OCc3ccccc3)cc1)C2 [PA-647],0.03,12.5,0.03,"19,916 RLUs",> 25,0.2,0.2,0.4,0.4,3.12,> 25,100,–
"CCC1Cn2cc([N+](=O)[O-])nc2O1 (centres unmarked) [CGI 17341, 2-ethyl-5-nitro-2,3-dihydro[2,1-b]imidazo-oxazole]",–,–,–,–,–,–,–,–,–,–,–,–,exhibit activity against Mycobacterium tuberculosis
